According to BigSolDB 2.1:

c1ccc2c(c1)Cc1ccccc1-2
solubility (mole fraction)
Settings	in acetone	in benzene	in chloroform	in isobutanol	in n-propanol	in toluene
283 K	0.0445	0.0883	0.0893	0.00425	0.00817	0.063
288 K	0.049	0.0982	0.102	0.00544	0.00903	0.0809
293 K	0.0558	0.109	0.114	0.00691	0.0115	0.0967
298 K	0.0687	0.126	0.132	–	–	0.124
298.4 K	–	–	–	0.00902	0.0134	–
303 K	–	–	–	–	–	0.152
303.1 K	0.0793	–	0.153	–	–	–
303.2 K	–	0.143	–	0.0121	0.0163	–
308 K	–	0.158	–	0.0156	0.0188	0.195
308.2 K	0.0907	–	0.173	–	–	–
313 K	0.104	0.183	0.195	0.0192	0.0215	0.25
318 K	0.12	0.209	0.22	0.023	0.0248	0.3
323 K	0.14	0.235	0.25	0.0267	0.0289	0.37
